{
  "source": "patent US20120065126A1",
  "about": "“Pharmaceutical Compositions Containing Antifungal Peptides” (BASF SE, priority 2009, published 2012)",
  "key": {"[1]": {"tested_on": "M. furfur", "assay": "Kinetics of the effect of P18 in the presence of a shampoo base formulation (CFU)", "assay_type": "cell-based, Malassezia furfur", "details": "10% (v/v) shampoo base formulation 31-3; 0.23-2.3 g/l; 5 min to 24 h", "protocol": "The experiments were conducted as follows: [table] The Texapon NSO and Tego Betain L7 components were mixed and dissolved. NaOH was used to adjust the pH to pH 6-7. The growth test was effected as follows: a shake culture containing […]. furfur and incubated with shaking at 30° C. and 200 rpm overnight. A 96-well microtiter plate was filled with 100 μl per well of […]. furfur suspension from the overnight culture. The M. furfur suspension was adjusted at the start of the experiment to an optical density, measured at 600 nm, of 0.1. 10% (v/v) of shampoo base formulation 31-3 was added to the M. furfur suspension. P18 peptide was dissolved with a concentration of 230 g/l in water. […] The microtiter plate was incubated with shaking at 30°."}, "[2]": {"assay": "Formulability of P18 in shampoo base formulations", "assay_type": "physicochemical", "details": "10 mM P18 in formulations 31-1 and 31-2, 5 mM in 31-3; pH 6-7", "protocol": "The formulability of the peptide P18 was tested in three different shampoo base formulations. For this purpose, the formulations with the following compositions were first produced:\nThe components were mixed and dissolved. NaOH was used to adjust the pH to pH 6-7. Thereafter, two 100 mM solutions of peptide P18 (P18 sequence H-KWKLFKKIPKFLHLAKKF-NH2) were prepared. DMSO was the solvent for one solution; it was water for the other solution. The appropriate volume of the 100 mM P18 peptide solution was added to each of the formulations, such that the final concentration in formulations 31-1 and 31-2 was 10 mM, and the final concentration of peptide P18 in formulation 31-3 was 5 mM."}, "[3]": {"tested_on": "M. furfur", "assay": "Long-term stability of P18 in shampoo base formulations (CFU)", "assay_type": "cell-based, Malassezia furfur", "details": "formulations 31-1-10, 31-3-5, 31-3-2 stored at 40° C.; 0, 12 and 22 days", "protocol": "The studies described hereinafter were conducted on the Malassezia furfur strain DSM 6170.\nThe long-term stability of P18 peptide (H-KWKLFKKIPKFLHLAKKF-NH2; carboxyl terminus amidated) in shampoo base formulations was tested.\nThe Texapon NSO and Tego Betain L7 components were mixed and dissolved. NaOH was used to adjust the pH to pH 6-7. Thereafter, a 100 mM aqueous solution of peptide P18 was prepared. The appropriate volume of the 100 mM P18 peptide solution was added to each of the formulations, such that the final concentrations of peptide P18 listed in Table 15 were obtained.\nThe formulations were stored at 40° C.\nAfter 0; 12 and 22 days, the effect of the formulations on M. furfur was studied.\nThe growth test was effected as follows: a shake culture containing M472 Pityrosporum medium was inoculated with M. furfur and incubated with shaking at 30° C. and 200 rpm overnight.\nA 96-well microtiter plate was filled with 100 μl per well of M472 Pityrosporum medium and inoculated with M. furfur suspension from the overnight culture. The M. furfur suspension was adjusted at the start of the experiment to an optical density, measured at 600 nm, of 0.1. […]\nAfter 24 hours, the colony forming units (CFU) were determined. For this purpose, 1 μl and 10 μl of each of the suspensions were streaked and, after incubation over the course of 6 days, the colonies were counted."}, "[4]": {"tested_on": "Malassezia furfur", "assay": "Effect of P18 in the presence of nonionic and zwitterionic surfactants (CFU)", "assay_type": "cell-based", "details": "24 hours", "protocol": "The aim of the experiment was to study the effect of nonionic and zwitterionic surfactants on the activity of P18 peptide (P18 sequence […]). For this purpose, the following surfactants were used: Pluracare F 68 (a polyoxyethylene-polyoxypropylene-polyoxyethylene block copolymer) Plantacare 818 (a glucoside) Tego Betain L7 (cocamidopropyl betaine) The growth test was effected as follows: a shake culture containing […]. furfur and incubated with shaking at 30° C. and 200 rpm overnight. […] The concentrations of the detergent solutions were adjusted such that the final concentration of the particular detergent in the mixture was 2%; 4% or 6%. The concentrations of the P18 peptide solutions were adjusted such that the final concentration of the P18 peptide in the mixture was 0 μM; 50 μM; 100 μM; 250 μM; or 500 μM. The microtiter plate was incubated with shaking at 30° C. […] The CFU was determined in order to rule out any influence of the biphasic medium, and also the growth form of M. furfur, on the optical density. The experiments were each conducted in triplicate determination at least in two independent experiments."}},
  "data": [
    {"substance": "H-KWKLFKKIPKFLHLAKKF-NH2 [P18, H-KWKLFKKIPKFLHLAKKF-NH2]", "values": [
      {"measurement": "Effect compared with zinc pyrithione and climbazole at different contact times", "setting": "[1]", "result": "better properties than zinc pyrithione or climbazole"},
      {"measurement": "Appearance of the formulations with P18", "setting": "[2]", "result": "clear and homogenous"},
      {"measurement": "Long-term stability in shampoo base formulations", "setting": "[3]", "result": "stable properties"},
      {"measurement": "Colony forming units (CFU) counted per μl", "setting": "[4]; Plantacare 818 2%, P18 50 μM", "result": 6, "unit": "CFU per μl"},
      {"measurement": "Colony forming units (CFU) counted per μl", "setting": "[4]; Plantacare 818 2%, P18 100 μM", "result": 0, "unit": "CFU per μl"},
      {"measurement": "Colony forming units (CFU) counted per μl", "setting": "[4]; Plantacare 818 2%, P18 250 μM", "result": 0, "unit": "CFU per μl"},
      {"measurement": "Colony forming units (CFU) counted per μl", "setting": "[4]; Plantacare 818 2%, P18 500 μM", "result": 0, "unit": "CFU per μl"},
      {"measurement": "Colony forming units (CFU) counted per μl", "setting": "[4]; Plantacare 818 4%, P18 50 μM", "result": 39, "unit": "CFU per μl"},
      {"measurement": "Colony forming units (CFU) counted per μl", "setting": "[4]; Plantacare 818 4%, P18 100 μM", "result": 5, "unit": "CFU per μl"},
      {"measurement": "Colony forming units (CFU) counted per μl", "setting": "[4]; Plantacare 818 4%, P18 250 μM", "result": 0, "unit": "CFU per μl"},
      {"measurement": "Colony forming units (CFU) counted per μl", "setting": "[4]; Plantacare 818 4%, P18 500 μM", "result": 0, "unit": "CFU per μl"},
      {"measurement": "Colony forming units (CFU) counted per μl", "setting": "[4]; Plantacare 818 6%, P18 50 μM", "result": 106, "unit": "CFU per μl"},
      {"measurement": "Colony forming units (CFU) counted per μl", "setting": "[4]; Plantacare 818 6%, P18 100 μM", "result": 10, "unit": "CFU per μl"},
      {"measurement": "Colony forming units (CFU) counted per μl", "setting": "[4]; Plantacare 818 6%, P18 250 μM", "result": 0, "unit": "CFU per μl"},
      {"measurement": "Colony forming units (CFU) counted per μl", "setting": "[4]; Plantacare 818 6%, P18 500 μM", "result": 0, "unit": "CFU per μl"},
      {"measurement": "Colony forming units (CFU) counted per μl", "setting": "[4]; Pluracare F68 2%, P18 50 μM", "result": 4, "unit": "CFU per μl"},
      {"measurement": "Colony forming units (CFU) counted per μl", "setting": "[4]; Pluracare F68 2%, P18 100 μM", "result": 1, "unit": "CFU per μl"},
      {"measurement": "Colony forming units (CFU) counted per μl", "setting": "[4]; Pluracare F68 2%, P18 250 μM", "result": 0, "unit": "CFU per μl"},
      {"measurement": "Colony forming units (CFU) counted per μl", "setting": "[4]; Pluracare F68 2%, P18 500 μM", "result": 0, "unit": "CFU per μl"},
      {"measurement": "Colony forming units (CFU) counted per μl", "setting": "[4]; Pluracare F68 4%, P18 50 μM", "result": 2, "unit": "CFU per μl"},
      {"measurement": "Colony forming units (CFU) counted per μl", "setting": "[4]; Pluracare F68 4%, P18 100 μM", "result": 0, "unit": "CFU per μl"},
      {"measurement": "Colony forming units (CFU) counted per μl", "setting": "[4]; Pluracare F68 4%, P18 250 μM", "result": 0, "unit": "CFU per μl"},
      {"measurement": "Colony forming units (CFU) counted per μl", "setting": "[4]; Pluracare F68 4%, P18 500 μM", "result": 0, "unit": "CFU per μl"},
      {"measurement": "Colony forming units (CFU) counted per μl", "setting": "[4]; Tego Betain L7 2%, P18 50 μM", "result": 0, "unit": "CFU per μl"},
      {"measurement": "Colony forming units (CFU) counted per μl", "setting": "[4]; Tego Betain L7 2%, P18 100 μM", "result": 0, "unit": "CFU per μl"},
      {"measurement": "Colony forming units (CFU) counted per μl", "setting": "[4]; Tego Betain L7 2%, P18 250 μM", "result": 0, "unit": "CFU per μl"},
      {"measurement": "Colony forming units (CFU) counted per μl", "setting": "[4]; Tego Betain L7 2%, P18 500 μM", "result": 0, "unit": "CFU per μl"},
      {"measurement": "Colony forming units (CFU) counted per μl", "setting": "[4]; Tego Betain L7 4%, P18 50 μM", "result": 3, "unit": "CFU per μl"},
      {"measurement": "Colony forming units (CFU) counted per μl", "setting": "[4]; Tego Betain L7 4%, P18 100 μM", "result": 0, "unit": "CFU per μl"},
      {"measurement": "Colony forming units (CFU) counted per μl", "setting": "[4]; Tego Betain L7 4%, P18 250 μM", "result": 0, "unit": "CFU per μl"},
      {"measurement": "Colony forming units (CFU) counted per μl", "setting": "[4]; Tego Betain L7 4%, P18 500 μM", "result": 0, "unit": "CFU per μl"},
      {"measurement": "Colony forming units (CFU) counted per μl", "setting": "[4]; Tego Betain L7 6%, P18 50 μM", "result": 0, "unit": "CFU per μl"},
      {"measurement": "Colony forming units (CFU) counted per μl", "setting": "[4]; Tego Betain L7 6%, P18 100 μM", "result": 0, "unit": "CFU per μl"},
      {"measurement": "Colony forming units (CFU) counted per μl", "setting": "[4]; Tego Betain L7 6%, P18 250 μM", "result": 0, "unit": "CFU per μl"},
      {"measurement": "Colony forming units (CFU) counted per μl", "setting": "[4]; Tego Betain L7 6%, P18 500 μM", "result": 0, "unit": "CFU per μl"}
    ]}
  ]
}
